Values of other authors as cited in US7618976B2, “Methods for the production of sildenafil base and citrate salt” (Teva Pharmaceutical Industries Ltd, priority 2004, dated 2009).

System: isolated human corpus cavernosum

In the case of CCCc1nn(C)c2c(=O)[nH]c(-c3cc(S(=O)(=O)N4CCN(C)CC4)ccc3OCC)nc12 [Sildenafil], the “direct relaxant effect on isolated human corpus cavernosum” value is given as “no direct relaxant effect”.
